Where two headings read alike, the source gives them in different places.

For data set [1] the following is noted: taken from the literature, cited from earlier work.
For data set [2] the following is noted: cited from earlier work.
Data set [3] is described as follows: pGa calculation (ligand sequestering ability). Format: physicochemical. Particulars: pGa = −log[Ga(III)free], pH 7.4, cL = 10 μM, cGa(III) = 1 μM. The text has this: (§1) Despite a large variety of PET chelators synthesized and tested in order to provide strong coordination of Ga(III) and Zr(IV) in vivo, until now it is has been hard to avoid the release of these metal ions in the body. Here we report two new Ga(III) and Zr(IV) hydroxamate chelators, designed to achieve an efficient sequestering of these metal ions but also to understand how the cyclization and the introduction of an additional hydroxamate group influences the stability of Zr(IV) complexes. Therefore, it is important to evaluate and compare the Ga(III)- and Zr(IV)-sequestering abilities of H3L1 and H4L2 with those of other chelators. However, the direct comparison of the stability constants of metal complexes is not straightforward, and other tools taking into account all the physicochemical properties of the ligands, i.e. their denticity, coordination modes, and acid–base properties, should be used.[52] In order to reliably compare the chelating abilities of H3L1 and H4L2 toward Ga(III) and Zr(IV) ions, the pM values were calculated. pFe was originally introduced by Raymond for the comparison of iron-siderophore systems;[53] pGa = −log[Ga(III)free] and pZr = −log[Zr(IV)free] were calculated at pH 7.4 with cL = 10 μM and cGa(III)/Zr(IV) = 1 μM (Table 2).

Data set [4] is described as follows: pZr calculation (ligand sequestering ability). Particulars: pZr = −log[Zr(IV)free], pH 7.4, cL = 10 μM, cZr(IV) = 1 μM. Format: physicochemical.
Text: as §1

Data set [5] can be described thus: pFe calculation (ligand sequestering ability). Format: physicochemical. The conditions noted are these: pH=7.4, cL=10 μM, metal 1 μM. The source says: Despite a large variety of PET chelators synthesized and tested in order to provide strong coordination of Ga(III) and Zr(IV) in vivo, until now it is has been hard to avoid the release of these metal ions in the body. Here we report two new Ga(III) and Zr(IV) hydroxamate chelators, designed to achieve an efficient sequestering of these metal ions but also to understand how the cyclization and the introduction of an additional hydroxamate group influences the stability of Zr(IV) complexes. Therefore, it is important to evaluate and compare the Ga(III)- and Zr(IV)-sequestering abilities of […] and […] with those of other chelators. […] page 15: 100 100 [ZrL4]+ [ZrL3]+ [ZrL4H ] -1 80 [ZrL3H ] 80 2+ -1 [ZrHL4] […] Experimental section. Ligands' sequestering ability Table S3. pFe values with various synthetic and biological chelators a Ligand pFe Chelating groups and ligands geometry […] 24.3 3 hydroxamate groups in a cyclic arrangement […] 23.3 4 hydroxamate groups in a linear arrangement […] 26.9 3 hydroxamate groups in a cyclic arrangement […] 23.61 3 hydroxamate groups in a linear arrangement […] DFOE 27.73 3 hydroxamate groups in a cyclic arrangement […] protonation and stability constants given in original publications; the hydrolysis constants of Fe(III) ions were taken from the literature14 and are given in the experimental section 15 (also on this page, place not known: […]

On the set-up of data set [6]: method as in ref 24 (DFOB), 2 (THPN), 25,58 (3,4,3-LI-HOPO), 25,59 (DTPA). Particulars: (re)calculated from constants of original publications, pH 7.4, cL = 10 μM, cZr(IV) = 1 μM; ref 24 (DFOB), 2 (THPN), 25,58 (3,4,3-LI-HOPO), 25,59 (DTPA); cited from earlier work.
Details of data set [7]: method as in ref 43 (DFOB), 38 (DFOE), 11 (DOTA), 54 (NOTA), 55 (H2hox), 56 (PrP9), 57 (HBED). Particulars: (re)calculated from constants of original publications, pH 7.4, cL = 10 μM, cGa(III) = 1 μM; ref 43 (DFOB), 38 (DFOE), 11 (DOTA), 54 (NOTA), 55 (H2hox), 56 (PrP9), 57 (HBED); cited from earlier work.
On the set-up of data set [8]: method as in PMID 31940188. Particulars: calculations by Holland; cited from earlier work.
A short description of data set [9]: Fe(III)-L + Zr(IV)-NTA metal–metal competition UV–vis titrations. Format: physicochemical. Particulars: Fe(III)-DFOB + Zr(IV)-NTA competition.
On the set-up of data set [10]: method as in PMID 11666621. The conditions noted are these: acidic range; cited from earlier work.
The conditions of data set [11]: acidic range; cited from earlier work.
The conditions of data set [12]: cited from earlier work; for pKa attributed to the deprotonation of a water molecule in the Zr(IV) complex: ref 24 (DFOB), 27 (EDTA).
The mark [13] stands for this setting: taken from the literature, ref 38 (H3L3), 35 (H3L4), 36,38 (DFOE).

Consider `CN(O)C(=O)CCC(=O)NCCOCC(C)(COCCNC(=O)CCC(=O)N(C)O)COCCNC(=O)CCC(=O)N(C)O` [H3L4], for which, in [1], the “log β [FeHL]” value is on record as 29.82. Moreover, the “log β [FeL]” value in data set [1] (ref 38 (H3L3), 35 (H3L4), 36,38 (DFOE)) was 27.34. Also, in [2] (setting [13]), the “log K LH2 (ligand protonation; log K2)” value was 8.97, the “log K LH3 (ligand protonation; log K3)” value is given as 8.26, the “log K LH (ligand protonation; log K1)” value is listed as 9.50 and the “log β LH2 (ligand protonation)” value is given as 18.47. Also, in data set [2] (setting [13]), the “log β LH3 (ligand protonation)” value is given as 26.73 and the “log β LH (ligand protonation)” value is given as 9.50. For the same compound, the pGa in data set [3] is 21.9. For the same compound, the pZr in [4] is recorded as 32.6.
`O=C1CCCCCN(O)C(=O)CCNC(=O)CCCCCN(O)C(=O)CCNC(=O)CCCCCN(O)C(=O)CCN1` [H3L3]: the pFe in data set [5] is 26.9. In [2] (setting [13]), the “log K LH (ligand protonation; log K1)” value was 9.89 and the “log β LH (ligand protonation)” value is reported as 9.89. The pGa in [3] is recorded as 25.4. In addition, in data set [4], the pZr is listed as 31.5.
As to `O=C(NCCCN(CCCCN(CCCNC(=O)c1cccc(=O)n1O)C(=O)c1cccc(=O)n1O)C(=O)c1cccc(=O)n1O)c1cccc(=O)n1O` [3,4,3-LI-HOPO], the pZr in data set [6] was 44.0[25],[58].
Consider `O=C1CCC(=O)N(O)CCCCCNC(=O)CCC(=O)N(O)CCCCCNC(=O)CCC(=O)N(O)CCCCCN1` [DFOE, desferrioxamine E, reference compound], for which the pGa in data set [7] was 25.2[38]. In addition, in [2] (setting [13]), the “log K LH2 (ligand protonation; log K2)” value was 9.42, the “log K LH3 (ligand protonation; log K3)” value was 8.65, the “log K LH (ligand protonation; log K1)” value was 9.89 and the “log β LH (ligand protonation)” value was 9.89. Further, the pZr in data set [4] is recorded as 31.0.
Consider `O=C(O)CN1CCN(CC(=O)O)CCN(CC(=O)O)CC1` [NOTA], for which the pGa in data set [7] was 27.4[54].
For `O=C(O)CCP(=O)(O)CN1CCN(CP(=O)(O)CCC(=O)O)CCN(CP(=O)(O)CCC(=O)O)CC1` [PrP9], the pGa in data set [7] is 23.1[56].
For `O=C(O)CN1CCN(CC(=O)O)CCN(CC(=O)O)CCN(CC(=O)O)CC1` [DOTA, 1,4,7,10-tetraazacyclododecane-1,4,7,10-tetraacetic acid], in data set [7], the pGa was 20.5[11].
For `CC(=O)N(O)CCCCCNC(=O)CCC(=O)N(O)CCCCCNC(=O)CCC(=O)N(O)CCCCCN` [DFOB], the pGa in [7] is 21.6[43]. The “log β [Zr(L)] predicted from computational calculations” value in data set [8] was 41.20. In addition, the “log β [ZrHDFOB]” value in data set [9] (spectra collected after 1h incubation) is recorded as 45.9; in data set [9] (spectra collected after 24h incubation), 46.1(2); in data set [12] (different ionic strength) it was 47.7. The “pKa of the Th(IV) complex” value in data set [10] was 1.9. For the same compound, the “pKa1 (protonation constant of the Ga(III) complex)” value in data set [11] is given as 0.78. Further, the “pKa2 (protonation constant of the Ga(III) complex)” value in data set [11] is 1.10. In [6], the pZr is 32.2[24]. Also, in data set [2], the “log Kamine (protonation constant of the amino group)” value was 10.97. Further, the “log β [ZrH(DFOB)OH]” value in data set [12] is listed as 40.04. Moreover, the “pKa attributed to the deprotonation of a water molecule in the Zr(IV) complex” value in data set [12] was 6.36.
On to `O=C1CCN(O)C(=O)CCCNC(=O)CCN(O)C(=O)CCCNC(=O)CCN(O)C(=O)CCCNC(=O)CCN(O)C(=O)CCCN1` [CTH36], for which the “log β [Zr(L)] predicted from computational calculations” value in data set [8] is on record as 52.84.
Regarding `CC(=O)N(O)CCCCCNC(=O)CCC(=O)N(O)CCCCCNC(=O)CCC(=O)N(O)CCCCCNC(=O)CCC(=O)N(O)CCCCCN` [DFO*], the “log β [Zr(L)] predicted from computational calculations” value in data set [8] is reported as 51.56.
In the case of `Oc1cccc2ccc(CNCCNCc3ccc4cccc(O)c4n3)nc12` [H2hox], in data set [7], the pGa was 28.4[55].
On to `O=C(O)CN(CCN(CC(=O)O)Cc1ccccc1O)Cc1ccccc1O` [HBED], for which the pGa in data set [7] was 28.0[57].
Take `O=C(O)CN(CCN(CC(=O)O)CC(=O)O)CC(=O)O` [EDTA, ethylenediaminetetraacetic acid]: the “pKa attributed to the deprotonation of a water molecule in the Zr(IV) complex” value in data set [12] is 6.2.
In the case of `O=C(O)CN(CCN(CC(=O)O)CC(=O)O)CCN(CC(=O)O)CC(=O)O` [DTPA], in data set [6], the pZr is 32.3[25],[59].

(Values after PMC8424644, “Thermodynamic Stability and Speciation of Ga(III) and Zr(IV) Complexes with High-Denticity Hydroxamate Chelators” (Inorganic Chemistry, 2021).)
